Test results reported in patent US11317626B2, “Forchlorfenuron mixtures and uses thereof” (Valent BioSciences LLC, priority 2018, dated 2022).

Key:
[1] = test system: Prunus (stone fruit) plants; assay: Example 5: bud break and shoot growth of Prunus (stone fruit) plants in greenhouse; format: in vivo; conditions: for Fresh Weight at Harvest, FW: combined new shoot fresh weight, harvest at 28 days; for 50% BB: days after treatment to 50% bud break
Protocol: (§1) To determine if the mixtures provided unexpected results, the observed combined efficacy (“OCE”) was divided by the expected combined efficacy (“ECE”) wherein the expected ECE is calculated by the Abbott method: ECE=A+B−(AB/100), • wherein ECE is the expected combined efficacy and in which A and B are the speed of bud break relative to control, the number of buds broken per plant relative to control, shoot length relative to control or shoot weight relative to control given by the single active ingredients. If the ratio between the OCE of the mixture and the ECE of the mixture is greater than 1, then greater than expected interactions are present in the mixture. (Gisi, Synergistic Interaction of Fungicides in Mixtures, The American Phytopathological Society, 86:11, 1273-1279,1996). Results
To assess the ability of mixtures of the invention to promote and synchronize bud break, these mixtures were applied to Prunus (stone fruit) plants in the greenhouse and examined for bud break (initiation of growth) and subsequent shoot development. Forchlorfenuron, Dormex (50% HC), 15-0-0 (Erger®) and 17-0-0 fertilizers (CAN17), and mixtures thereof were each applied individually or sequentially (co-applied) to the shoots of Prunus plants. Plants were evaluated for bud break at 28 days after treatment.

Concord grape vines = assay: Example 1: bud break and shoot growth of potted Concord grape vines in greenhouse; format: in vivo; conditions: for Broken Buds/Plant / FW/Broken Bud: 51 days post-treatment; for FW/Plant: combined shoot fresh weight at 51 DAT; for 50% BB: days from application to 50% of the plants showing at least one bud broken; for 0-50% BB: days from bud break on the first plant to 50% of the plants with bud break, synchrony
Text: An aqueous 50% hydrogen cyanamide solution (Sigma-Aldrich, St. Louis, Mo. USA) was used as the source of hydrogen cyanamide (“HC”). The commercial product, Dormex® contains 50% hydrogen cyanamide (w/v) in an aqueous base.
Erger® was used as the source of 15-0-0 fertilizer. Erger® contains 15% total nitrogen as 3.1% ammoniacal nitrogen, 5.8% nitrate nitrogen, 6.1% urea nitrogen and 3.3% calcium derived from a mixture of ammonium nitrate, calcium nitrate and urea. Erger® is always used in combination with either 20% (w/v) Ca(NO3)2 or Activ Erger®. In the following examples, 15-0-0 fertilizer was applied at a rate of 208,340 ppm calcium nitrate, 15,060 ppm nitrogen nitrate and 15,660 ppm urea or 239,060 ppm total.
CAN-17 was used as the 17-0-0 fertilizer. CAN-17 contains 17% total nitrogen as 4.6% ammonium nitrogen and 11.6% nitrate nitrogen and 1.3% urea nitrogen and 8.8% calcium derived from ammonium nitrate and calcium nitrate. CAN-17 is available from J. R. Simplot Company (Boise, Id., USA). In the following examples, 17-0-0 fertilizer was applied at a rate of 118,200 ppm calcium nitrate and 78,900 ppm nitrogen nitrate or 197,100 ppm total. See, Table 1 below, for ratios of forchlorfenuron (“CPPU”) to fertilizer that were used in the following examples.
To assess the ability of mixtures of the invention to promote and synchronize bud break these mixtures were applied to Concord grape vines and examined for bud break (initiation of growth) and subsequent shoot development. Specifically, dormant bare-rooted Concord grape vines were planted in pots containing Pro-Mix® BX potting soil (Pro-Mix is a registered trademark of and available from Premier Horticulture Ltd.) and pruned to five nodes on a single shoot of one-year-old wood. Nodes are regions on the shoot where leaves arise from the shoot and buds are present at the axis of the shoot:leaf interface. The bud found at the shoot:leaf interface develops into the vines new shoot growth. Aqueous solutions of forchlorfenuron, HC, 15-0-0 fertilizer, 17-0-0 fertilizer, and mixtures thereof were each applied individually or sequentially or co-applied to the first-year wood of separate Concord grape vines. Plants were grown in a heated greenhouse for 49 days and evaluated for percent of vines showing bud break, periodically between seven days after application and the conclusion of the experiment. Percent bud break is determined by the number of plants that have at least one bud broken divided by the total number of plants per treatment times 100. At 51 days after treatment (“DAT”), the plants were sacrificed and measured for total number of flower clusters, total new shoot length, longest new shoot, combined new shoot fresh weight. New shoot growth is the growth arising from the dormant buds not including the woody growth that was planted and gave rise to the new growth.
as §1

## O=C(Nc1ccccc1)Nc1ccnc(Cl)c1 [CPPU, N-(2-Chloro-4-pyridyl)-N′-phenylurea]
[1]; listed as CPPU 300 ppm
  Fresh Weight at Harvest, FW: 1.34 grams
  50% BB: 14 days
[1]; listed as CPPU 600 ppm
  Fresh Weight at Harvest, FW: 4.91 grams
  50% BB: 10 days
Concord grape vines; 31 days after treatment, plants with at least one bud showing a green shoot emerging, listed as CPPU 100 ppm
  Percentage of Concord Grape Vines with Dormancy Relieved: 25%
Concord grape vines; 31 days after treatment, plants with at least one bud showing a green shoot emerging, listed as CPPU 300 ppm
  Percentage of Concord Grape Vines with Dormancy Relieved: 12.5%
Concord grape vines; 31 days after treatment, plants with at least one bud showing a green shoot emerging, listed as CPPU 1000 ppm
  Percentage of Concord Grape Vines with Dormancy Relieved: 37.5%
Concord grape vines; 34 days after treatment, listed as CPPU 100 ppm
  Percentage of Concord Grape Vines with Dormancy Relieved: 50%
Concord grape vines; 34 days after treatment, listed as CPPU 300 ppm
  Percentage of Concord Grape Vines with Dormancy Relieved: 37.5%
Concord grape vines; 34 days after treatment, listed as CPPU 1000 ppm
  Percentage of Concord Grape Vines with Dormancy Relieved: 62.5%
Concord grape vines; 36 days after treatment, listed as CPPU 100 ppm
  Percentage of Concord Grape Vines with Dormancy Relieved: 50%
Concord grape vines; 36 days after treatment, listed as CPPU 300 ppm
  Percentage of Concord Grape Vines with Dormancy Relieved: 50%
Concord grape vines; 36 days after treatment, listed as CPPU 1000 ppm
  Percentage of Concord Grape Vines with Dormancy Relieved: 62.5%
Concord grape vines; 38 days after treatment, listed as CPPU 100 ppm
  Percentage of Concord Grape Vines with Dormancy Relieved: 50%
Concord grape vines; 38 days after treatment, listed as CPPU 300 ppm
  Percentage of Concord Grape Vines with Dormancy Relieved: 50%
Concord grape vines; 38 days after treatment, listed as CPPU 1000 ppm
  Percentage of Concord Grape Vines with Dormancy Relieved: 75%
Concord grape vines; 43 days after treatment, listed as CPPU 100 ppm
  Percentage of Concord Grape Vines with Dormancy Relieved: 75%
Concord grape vines; 43 days after treatment, listed as CPPU 300 ppm
  Percentage of Concord Grape Vines with Dormancy Relieved: 62.5%
Concord grape vines; 43 days after treatment, listed as CPPU 1000 ppm
  Percentage of Concord Grape Vines with Dormancy Relieved: 87.5%
Concord grape vines; 45 days after treatment, listed as CPPU 100 ppm
  Percentage of Concord Grape Vines with Dormancy Relieved: 75%
Concord grape vines; 45 days after treatment, listed as CPPU 300 ppm
  Percentage of Concord Grape Vines with Dormancy Relieved: 62.5%
Concord grape vines; 45 days after treatment, listed as CPPU 1000 ppm
  Percentage of Concord Grape Vines with Dormancy Relieved: 87.5%
Concord grape vines; 51 days after treatment, listed as CPPU 100 ppm
  Percentage of Concord Grape Vines with Dormancy Relieved: 87.5%
Concord grape vines; 51 days after treatment, listed as CPPU 300 ppm
  Percentage of Concord Grape Vines with Dormancy Relieved: 62.5%
Concord grape vines; 51 days after treatment, listed as CPPU 1000 ppm
  Percentage of Concord Grape Vines with Dormancy Relieved: 87.5%
Concord grape vines; listed as CPPU 100 ppm
  Broken Buds/Plant: 1.71
  FW/Broken Bud: 4.73 grams
  FW/Plant: 8.11 grams
  50% BB: 34 days
  0-50% BB: 10 days
Concord grape vines; listed as CPPU 300 ppm
  Broken Buds/Plant: 2.00
  FW/Broken Bud: 4.69 grams
  FW/Plant: 9.39 grams
  50% BB: 36 days
  0-50% BB: 7 days
Concord grape vines; listed as CPPU 1000 ppm
  Broken Buds/Plant: 1.29
  FW/Broken Bud: 9.51 grams
  FW/Plant: 12.22 grams
  50% BB: 34 days
  0-50% BB: 14 days
